US20210052633A1, “HYALURONIC ACID SYNTHESIS PROMOTER, METHOD FOR PROMOTING HYALURONIC ACID SYNTHESIS, AND CELL EVALUATION METHOD” (SEIKAGAKU CORPORATION, priority 2018, published 2021)

What was measured:
[1] = test system: Human synovial cells derived from a patient with rheumatism (HFLS-RA); assay: Hyaluronic acid synthesis by synovial cells ([3H] glucosamine incorporation, HPLC fractionation by molecular weight); format: cell-based
Procedure: Compound 1 or sodium hyaluronate (HA) (ARTZ Dispo (registered trademark) (manufactured by Seikagaku Corporation)) was mixed in a solution containing a phosphate buffer solution (GIBCO) and an α-MEM (GIBCO) concentrated medium. Further, each reagent was added and mixed in the resulting solution so that the final concentrations were as follows: 10% (v/v) fetal bovine serum (hereinafter FBS (MP Biomedicals)), 10 ng/mL recombinant human IL-1β/IL-1F2 (hereinafter IL-1β (R & D Systems)), 1% (w/v) penicillin/streptomycin (GIBCO), and 370 kBq/mL [^3H] glucosamine (Perkin Elmer). As a result, the following five solutions were obtained as test substances.
Human synovial cells derived from a patient with rheumatism (HFLS-RA, CELL APPLICATIONS, INC.) were subcultured and grown in a 175-cm^2 flask. In the cell culture, Basal medium (containing 10% (v/v) Growth supplement and 1% (w/v) penicillin/streptomycin) (manufactured by Cell Applications, Inc.) was used. Thereafter, the cells were seeded in a 6-well plate at 3.0×10^5 cells/2 mL/well and cultured for about 24 hours until confluence was reached. In the cell culture, α-MEM medium (containing 10% (v/v) FBS and 1% (w/v) penicillin/streptomycin) was used. After removing the culture supernatant, 2 mL of the test substance was added to the cells, and the cells were further cultured for 48 hours. The culture was performed at 37° C. in a CO2 incubator (5% (v/v) CO2). After completion of the culture, the culture supernatant was collected and cryopreserved in an ultra-low temperature freezer until measurement.
Since glucosamine is a constituent monosaccharide of hyaluronic acid, in hyaluronic acid newly synthesized in the cells after addition of the test substance, [^3H] glucosamine is incorporated. Therefore, hyaluronic acid in the collected culture supernatant was separated according to molecular weight using HPLC, and fractions were collected every 0.5 minutes using a fraction collector. To each of the collected fractions, 0.5 mL of a scintillation fluid was added and mixed. Thereafter, the radioactivity (dpm, disintegrations per minute) of each fraction was measured using a scintillation counter, and the radioactivity (the amount of [^3H] glucosamine incorporated into newly produced hyaluronic acid) was evaluated. The HPLC conditions are as follows.
Mobile phase: a solution of 5 mmol/L phosphate buffer solution (pH 6.0) with 0.82% (w/v) NaCl:acetonitrile=2:1 (v:v)
Column: OH pak SB-805 HQ column (Shodex (registered trademark)), column temperature: 35° C.
The hyaluronic acid standard solution was separated by HPLC, and UV absorption at a wavelength of 210 nm was measured. Fraction No. in which the peak top of the hyaluronic acid standard solution of each molecular weight is collected was calculated. As the hyaluronic acid standard solutions, Select-HATM 500 k (average molecular weight: 528,000), Select-HATM 1,000 k (average molecular weight: 1,076,000), and Select-HATM 2,500 k (average molecular weight: 2,420,000) were used.
The same procedure as in Example 1 was performed. Note that the culture supernatant was collected at respective time points (8, 24, 36, 48, and 72 hours) after adding the test substance to the cells.
A control solution, a 0.01% (w/v %) compound 1 solution, and a 0.01% (w/v %) sodium hyaluronate (HA) solution were prepared in the same manner as in Example 1. DF-Na (0.014 μg/mL, 0.14 μg/mL, 1.4 μg/mL, and 14 μg/mL) solutions were prepared by dissolving DF-Na in the control solution. Further, a HA+DF-Na mixed liquid was obtained by dissolving DF-Na (1.4 μg/mL) in the 0.01% (w/v %) sodium hyaluronate (HA) solution.
(§1) The same procedure as in Example 1 was performed.
The same procedure as in Example 1 was performed. Note that a column (OH pak SB-807 HQ column (Shodex (registered trademark)) having higher separability on the high molecular weight side than the HPLC column (OH pak SB-805 HQ column (Shodex (registered trademark)) was used.

[2] = test system: Human synovial cells derived from a patient with rheumatism (HFLS-RA); assay: Hyaluronidase treatment of culture supernatant, then fractionation and radioactivity measurement; format: cell-based; conditions: Example 2, 0.01% (w/v)
Procedure: It was verified that the substance whose synthesis was promoted by the action of the compound 1 is hyaluronic acid by confirming the presence or absence of degradation by a hyaluronic acid-degrading enzyme (hyaluronidase).
as §1
The culture supernatant (90 μL) collected after adding the 0.01% HA solution and 10 μL of 100 TRU/mL hyaluronidase (or water for injection) were mixed and reacted overnight at 37° C., thereby performing a hyaluronidase treatment. The culture supernatant (90 μL) collected after adding the 0.01% compound 1 solution and 30 μL of 100 TRU/mL hyaluronidase (or water for injection) were mixed and reacted at 60° C. for 3 hours, thereby performing a hyaluronidase treatment. The hyaluronidase (derived from an actinomycetes) was purchased from Seikagaku Biobusiness Corporation.

[3] = test system: human synovial cells derived from three patients with osteoarthritis (HFLS-OA); assay: Hyaluronic acid synthesis by synovial cells ([3H] glucosamine incorporation, HPLC fractionation by molecular weight); format: cell-based; conditions: 48 hours, SB-807 HQ column
HAS2 mRNA = assay: Relative mRNA level (real-time PCR, ΔΔCt) in synovial cells; format: cell-based, human; conditions: HFLS-OA, 0.1% (w/v), 48 hours, vs control
Procedure: (§2) Compound 1 or sodium hyaluronate (HA) (ARTZ Dispo (registered trademark) (manufactured by Seikagaku Corporation)) was mixed in a solution containing a phosphate buffer solution and an α-MEM concentrated medium. Further, each reagent was added and mixed in the resulting solution so that the final concentrations were as follows: 10% (v/v) fetal bovine serum (hereinafter FBS), 10 ng/mL recombinant human IL-1β/IL-1F2 (hereinafter IL-1β), and 1% (w/v) penicillin/streptomycin. As a result, the following three solutions were prepared as test substances.
(§3) Human synovial cells derived from a patient with osteoarthritis (HFLS-OA, CELL APPLICATIONS, INC.) were subcultured and grown in a 175-cm^2 flask. In the cell culture, Basal medium (containing 10% (v/v) Growth supplement and 1% (w/v) penicillin/streptomycin) (manufactured by Cell Applications, Inc.) was used. Thereafter, the cells were seeded in a 6-well plate at 3.0×10^5 cells/2 mL/well and cultured for about 24 hours until confluence was reached. In the cell culture, α-MEM medium (containing 10% (v/v) FBS and 1% (w/v) penicillin/streptomycin) was used. […]
(§4) The cDNA sample was subjected to real-time PCR using Premix ExTaq (Perfect Real Time) (Takara Bio, Inc.), the Ct values of target genes (HAS1, HAS2, HAS3, HYAL1, HYAL2, and HYAL3) and GAPDH were measured, and relative mRNA levels were calculated by the ΔΔCt method.

HYAL2 mRNA = assay: as above; format: cell-based, human; conditions: HFLS-OA, 0.1% (w/v), 48 hours, vs control
Procedure: as §2, §3, §4

[4] = test system: model rabbit with antigen-induced arthritis; assay: Hyaluronic acid synthesis in the knee joint of a model rabbit with antigen-induced arthritis; format: in vivo, Japanese white rabbit
From the text: A 0.5% (w/v %) compound 1 solution was obtained by mixing respective solutions of a 1% (w/v) compound 1 solution (phosphate buffer solution), a 10% (w/v) ovalbumin solution (phosphate buffer solution) and [^3H] glucosamine (phosphate buffer solution, 37 MBq/mL) at a ratio of 5:1:4 (v:v:v). In the preparation of a control solution, a phosphate buffer solution was used in place of the compound 1 solution. In the preparation of a sodium hyaluronate (HA) solution, ARTZ Dispo (registered trademark) (manufactured by Seikagaku Corporation) was used in place of the compound 1 solution. Further, a Normal solution not containing ovalbumin (an arthritis-inducing substance) was obtained by mixing respective solutions of a phosphate buffer solution and [^3H] glucosamine (phosphate buffer solution, 37 MBq/mL) at a ratio of 3:2 (v:v). As test substances, the following substances were used.
Ovalbumin (SIGMA) was dissolved and prepared with physiological saline (Otsuka Pharmaceutical Factory, Inc.) at 1% (w/v), and a water-in-oil emulsion was prepared with Freund's complete adjuvant (CAPPEL) at 1:1 (v:v). The emulsion was intradermally administered at a total dose of 1 mL to dozens of sites of the back of a Japanese white rabbit (male, 16 weeks of age, Oriental Yeast Industry Co., Ltd.) under general anesthesia (midazolam, xylazine, and butorphanol at 0.67 mg/kg, 5.3 mg/kg, and 0.67 mg/kg, i.v., respectively) to sensitize the rabbit. On day 12 after sensitization, the rabbit was additionally sensitized by administering the emulsion in the same manner. […]
Since glucosamine is a constituent monosaccharide of hyaluronic acid, in hyaluronic acid newly synthesized in the living body after administration of the test substance, [^3H] glucosamine is incorporated. […] Thereafter, the radioactivity (dpm, disintegrations per minute) of each fraction was measured using a scintillation counter, and the radioactivity (the amount of [^3H] glucosamine incorporated into newly synthesized hyaluronic acid) was evaluated. […]

[5] = test system: synovial cells derived from patients with osteoarthritis (HFLS-OA)
Procedure: The cells derived from three patients with each disease (3 lots) were separately evaluated and the number of cases was set to 3.
After the culture supernatant was collected, the adhered cells were detached from each well. Thereafter, the cell count was measured using a trypan blue solution and a hemacytometer.

[6] = 0.5% (w/v), 0.5 mL/joint, 48 hours

| Molecule | action of promoting the synthesis of high molecular weight hyaluronic acid ([1]; Example 1, HFLS-RA, 0.1% and 0.01% (w/v), 48 hours) | molecular weight peak of hyaluronic acid produced ([1]; Example 1, HFLS-RA, IL-1β, 0.1% and 0.01% (w/v) test substance, 48 hours, SB-805 HQ column, control peak in the vicinity of 500,000) | molecular weight peak of hyaluronic acid produced ([1]; Example 3, HFLS-RA, 0.1% (w/v), 8, 24, 36, 48 and 72 hours, control in the vicinity of 500,000) | content of hyaluronic acid over time ([1]; Example 3, HFLS-RA, 0.1% (w/v), 8 to 72 hours) | molecular weight peak of hyaluronic acid produced ([1]; Example 4, HFLS-RA, 0.01% (w/v), 48 hours, control in the vicinity of 500,000) | molecular weight peak of hyaluronic acid produced ([1]; Example 5, synovial cells from three patients with rheumatism, 0.01% (w/v), 48 hours, SB-807 HQ column) | peak of the high molecular weight radioactive substance after hyaluronidase treatment ([2]; hyaluronidase (+)) | production and molecular weight of high molecular weight radioactive substance ([2]; hyaluronidase (−)) | molecular weight peak of hyaluronic acid produced ([3]; Example 5, 0.01% (w/v)) | molecular weight of hyaluronic acid produced ([3]; Example 5, 0.1% (w/v)) | expression of HAS2 mRNA (relative mRNA level) (HAS2 mRNA) | expression of HYAL2 mRNA (relative mRNA level) (HYAL2 mRNA) | molecular weight peak of hyaluronic acid synthesized in the knee joint ([4]; 0.5% (w/v) solution, 0.5 mL/joint into the knee joint cavity, joint fluid at 48 hours, normal rabbit peak higher than 2,300,000) | amount of high molecular weight hyaluronic acid produced in the knee joint [4, 6] | production amount of hyaluronic acid in the knee joint [4, 6] | cell count after cell culture [5] | action of producing high molecular weight hyaluronic acid observed in the compound 1 group ([1]; Example 4, HFLS-RA, 48 hours, 0.01% HA, DF-Na 1.4 μg/mL, or both mixed) | molecular weight peak of hyaluronic acid produced ([1]; Example 4, HFLS-RA, DF-Na 1.4 μg/mL, 48 hours) | action of promoting hyaluronic acid synthesis ([1]; Example 4, HFLS-RA, DF-Na 0.014 to 14 μg/mL, 48 hours) |
| --- | --- | --- | --- | --- | --- | --- | --- | --- | --- | --- | --- | --- | --- | --- | --- | --- | --- | --- | --- |
| Aminoethanol-diclofenac-introduced sodium hyaluronate [compound 1] | has an action of promoting the synthesis of high molecular weight hyaluronic acid | high molecular weight exceeding the molecular weight of hyaluronic acid produced in the HA group | higher molecular weight than that in the HA groups | increases over time | more prominent than in the HA group | ~2,400,000 | disappearance of the peak | higher molecular weight than the radioactive substance in the 0.01% HA (hyaluronidase (−)) group | ~2,400,000 | more than 2,400,000 | significantly promotes | significantly suppresses | ~2,300,000 | prominent as compared with the sodium hyaluronate administration group | more prominent in the compound 1 administration group even as compared with the normal group | no significant increase or decrease |  |  |  |
| O=C(O)Cc1ccccc1Nc1c(Cl)cccc1Cl [DF-Na, diclofenac sodium, reference compound] |  |  |  |  |  |  |  |  |  |  |  |  |  |  |  |  | not observed | ~500,000 | not observed at any concentration |
